Test results as given in patent publication US20240390340A1 (INCYTE CORPORATION, priority 2023, published 2024).

Test system: KRAS
Test: KRAS inhibition, assay not specified (at least one assay described herein)
Conditions: Peak 1 versus Peak 2 of prep. LCMS; assay not stated

Row | SMILES | potency of the separated diastereoisomer (atropisomer) in words
1 | COc1cc(O[C@H]2C[C@H](c3cc4c(C(C)O)nc5c(F)c(-c6cccc(Cl)c6Cl)c(CCC#N)cc5c4n3[C@H]3[C@H]4CN[C@@H]3C4)N(C(=O)C3CC3)C2)ccn1 (single isomer, unassigned) [Example 2, Diastereomer 1 (Peak 1)] | potent
2 | Cc1nc2c(F)c(-c3cccc(Cl)c3Cl)c(CCC#N)cc2c2c1cc([C@H]1C[C@](C)(OCc3ccccc3)CN1C(=O)C1CC1)n2[C@H]1[C@H]2CN[C@@H]1C2 (single isomer, unassigned) [Example 81, Diastereomer 1 (Peak 1)] | potent
3 | C[C@@H]1[C@@H](Oc2cc(F)ccn2)C[C@H](c2cc3c([C@@H](C)O)nc4c(F)c(-c5cccc(Cl)c5Cl)c(CCC#N)cc4c3n2[C@H]2[C@H]3CN[C@@H]2C3)N1C(=O)C1CC1 (single isomer, unassigned) [Example 63, Diastereomer 1 (Peak 1)] | potent
4 | Cc1cc(F)cc(O[C@H]2C[C@H](c3cc4c([C@@H](C)O)nc5c(F)c(-c6cccc(Cl)c6Cl)c(CCC#N)cc5c4n3[C@H]3[C@H]4CN[C@@H]3C4)N(C(=O)C3CC3)C2)n1 (single isomer, unassigned) [Example 62, Diastereomer 1 (Peak 1)] | potent
5 | COc1nccc(O[C@H]2C[C@H](c3cc4c([C@@H](C)O)nc5c(F)c(-c6cccc(Cl)c6Cl)c(CCC#N)cc5c4n3[C@H]3[C@H]4CN[C@@H]3C4)N(C(=O)C3CC3)C2)c1F (single isomer, unassigned) [Example 53, Diastereomer 1 (Peak 1)] | potent
6 | Cc1nc2c(F)c(-c3cccc(Cl)c3Cl)c(CCC#N)cc2c2c1cc([C@H]1C[C@H](n3cc(C(C)(C)C)nn3)CN1C(=O)C1CC1)n2[C@H]1[C@H]2CN[C@@H]1C2 (single isomer, unassigned) [Example 4, Diastereomer 1 (Peak 1)] | potent
7 | C[C@@H](O)c1nc2c(F)c(-c3cccc(Cl)c3Cl)c(CCC#N)cc2c2c1cc([C@H]1C[C@H](Oc3nccs3)CN1C(=O)C1CC1)n2[C@H]1[C@H]2CN[C@@H]1C2 (single isomer, unassigned) [Example 54, Diastereomer 1 (Peak 1)] | potent
8 | COC[C@@H]1[C@@H](Oc2cc(OC)ncc2F)C[C@H](c2cc3c([C@@H](C)O)nc4c(F)c(-c5cccc(Cl)c5Cl)c(CCC#N)cc4c3n2[C@H]2[C@H]3CN[C@@H]2C3)N1C(=O)C1CC1 (single isomer, unassigned) | potent
9 | [2H]C([2H])([2H])O[C@H]1CC[C@@H]1O[C@H]1C[C@H](c2cc3c(C)nc4c(F)c(-c5cccc(Cl)c5Cl)c(CCC#N)cc4c3n2[C@H]2[C@H]3CN[C@@H]2C3)N(C(=O)C2CC2)C1 (single isomer, unassigned) [Example 80, Diastereomer 1 (Peak 1)] | potent
10 | C[C@@H](O)c1nc2c(F)c(-c3cccc(Cl)c3Cl)c(CCC#N)cc2c2c1cc([C@H]1C[C@H](Oc3cc(C4CC4)on3)CN1C(=O)C1CC1)n2[C@H]1[C@H]2CN[C@@H]1C2 (single isomer, unassigned) [Example 77, Diastereomer 1 (Peak 1)] | potent
11 | COc1cc(O[C@H]2C[C@H](c3cc4c([C@@H](C)O)nc5c(F)c(-c6cccc(Cl)c6Cl)c(CCC#N)cc5c4n3[C@H]3[C@H]4CN[C@@H]3C4)N(C(=O)C3CC3)[C@@H]2C)c(F)cn1 (single isomer, unassigned) [Example 51, Diastereomer 1 (Peak 1)] | potent
12 | COc1cc(O[C@H]2C[C@H](c3cc4c([C@@H](C)O)nc5c(F)c(-c6cccc(Cl)c6Cl)c(CCC#N)cc5c4n3[C@H]3[C@H]4CN[C@@H]3C4)N(C(=O)C3(C)CC3)[C@@H]2C)c(F)cn1 (single isomer, unassigned) [Example 52, Diastereomer 1 (Peak 1)] | potent
13 | CC[C@@H]1[C@@H](Oc2cc(OC)ncc2F)C[C@H](c2cc3c([C@@H](C)O)nc4c(F)c(-c5cccc(Cl)c5Cl)c(CCC#N)cc4c3n2[C@H]2[C@H]3CN[C@@H]2C3)N1C(=O)C1CC1 (single isomer, unassigned) [Example 82, Diastereomer 1 (Peak 1)] | potent
14 | C[C@@H]1[C@@H](Oc2c(F)ccnc2Cl)C[C@H](c2cc3c([C@@H](C)O)nc4c(F)c(-c5cccc(Cl)c5Cl)c(CCC#N)cc4c3n2[C@H]2[C@H]3CN[C@@H]2C3)N1C(=O)C1CC1 (single isomer, unassigned) [Example 64, Diastereomer 1 (Peak 1)] | potent
15 | Cc1nc2c(F)c(-c3cccc(Cl)c3Cl)c(CCC#N)cc2c2c1cc([C@H]1C[C@H](OC(F)(F)c3ccccc3)CN1C(=O)C1CC1)n2[C@H]1[C@H]2CN[C@@H]1C2 (single isomer, unassigned) [Example 79, Diastereomer 1 (Peak 1)] | potent
16 | Cc1nc2c(F)c(-c3cccc(Cl)c3Cl)c(CCC#N)cc2c2c1cc([C@H]1C[C@H](OC3(C)CCC3)CN1C(=O)C1CC1)n2[C@H]1[C@H]2CN[C@@H]1C2 (single isomer, unassigned) [Example 78, Diastereomer 1 (Peak 1)] | potent
